In BindingDB's records for doi:10.1021/jm201708h (Progen Pharmaceuticals, 2012) one finds Ki data, which are given here for one molecule.

The test addresses T1, Heparanase (Homo sapiens, UniProt Q9Y251).
T1 sequence (Q9Y251 whole entry): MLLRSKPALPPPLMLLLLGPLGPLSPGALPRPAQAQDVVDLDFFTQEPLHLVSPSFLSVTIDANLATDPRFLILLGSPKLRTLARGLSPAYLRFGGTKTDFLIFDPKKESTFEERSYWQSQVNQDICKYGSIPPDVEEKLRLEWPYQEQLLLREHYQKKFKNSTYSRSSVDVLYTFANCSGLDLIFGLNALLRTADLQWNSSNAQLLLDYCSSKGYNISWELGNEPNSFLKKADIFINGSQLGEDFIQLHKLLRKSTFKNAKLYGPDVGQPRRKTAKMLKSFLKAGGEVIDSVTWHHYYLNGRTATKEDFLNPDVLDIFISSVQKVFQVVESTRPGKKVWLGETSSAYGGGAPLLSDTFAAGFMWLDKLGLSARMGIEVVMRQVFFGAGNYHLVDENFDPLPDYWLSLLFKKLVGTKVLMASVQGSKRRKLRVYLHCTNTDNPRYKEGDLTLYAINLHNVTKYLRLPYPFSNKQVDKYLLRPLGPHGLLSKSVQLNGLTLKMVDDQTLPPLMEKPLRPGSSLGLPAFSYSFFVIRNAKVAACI
The test is described as follows: Inhibition of human recombinant heparanase after 2 to 24 hrs by WST1 dye based fondaparinux assay.

Consider `O=P(O)(O)OC[C@H]1O[C@H](O[C@@H]2[C@H](OS(=O)(=O)O)[C@@H](O[C@@H]3[C@H](OS(=O)(=O)O)[C@@H](O[C@@H]4[C@H](OS(=O)(=O)O)[C@@H](O[C@@H]5[C@@H](OS(=O)(=O)O)O[C@H](COS(=O)(=O)O)[C@@H](OS(=O)(=O)O)[C@@H]5OS(=O)(=O)O)O[C@H](COS(=O)(=O)O)[C@H]4OS(=O)(=O)O)O[C@H](COS(=O)(=O)O)[C@H]3OS(=O)(=O)O)O[C@H](COS(=O)(=O)O)[C@H]2OS(=O)(=O)O)[C@@H](OS(=O)(=O)O)[C@@H](OS(=O)(=O)O)[C@@H]1OS(=O)(=O)O` [PI-88], for which the Ki was 7.9 nM.
